Results taken from the supplement of paper PMC10307832.

Compound: C[C@@H](Oc1cc(-c2cnn(C3CCNCC3)c2)cnc1N)c1c(Cl)ccc(F)c1Cl [Crizotinib] + CCNC(=O)c1noc(-c2cc(C(C)C)c(O)cc2O)c1-c1ccc(CN2CCOCC2)cc1 [Luminespib] (partner 0.01 µM)
Assay: relative viability (nuclei count vs DMSO), 5 days (fraction); higher = more cells survive
Details: first compound 1 µM
In short: (§1)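 Each reported value is a median over duplicate plates. It expresses relative viability: treated-well nuclei count divided by vehicle-well nuclei count. Lung cancer cell lines in 1536-well plates were dosed by pin tool a day after seeding, alone with one drug or with a fixed anchor-drug dose plus five library-drug doses (not always all listed) in √10 steps, and nuclei were counted after 5 days.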

In order of rising relative viability:
1. SW 900  0.175
2. NCI-H441  0.391
3. NCI-H1623  0.5
4. NCI-H1563  0.534
5. NCI-H1792  0.553
6. NCI-H2342  0.815
7. NCI-H522  1.08

Compound: C[C@@H](Oc1cc(-c2cnn(C3CCNCC3)c2)cnc1N)c1c(Cl)ccc(F)c1Cl [Crizotinib] + COc1cccc2cc(-c3nc([C@H]4CC[C@H](C(=O)O)CC4)n4ncnc(N)c34)[nH]c12 [OSI-027] (partner 0.5 µM)
Assay: as above
Details: first compound 0.01 µM
In short: as §1

In order of rising relative viability:
1. LK-2  0.196
2. NCI-H1648  0.274
3. LU99A  0.304
4. BEN  0.308
5. EPLC-272H  0.312
6. A-427  0.352
7. HCC-44  0.409
8. EMC-BAC-2  0.431
9. ChaGo-K-1  0.438
10. NCI-H1623  0.439
11. LCLC-103H  0.483
12. SW 900  0.499
13. LCLC-97TM1  0.506
14. NCI-H322M  0.519
15. HARA  0.543
16. NCI-H441  0.569
17. COR-L 105  0.577
18. H3255  0.6
19. HCC-15  0.626
20. NCI-H23  0.631
21. 201T  0.635
22. CAL-12T  0.639
23. NCI-H2342  0.652
24. NCI-H522  0.672
25. HCC-827  0.704
26. NCI-H1563  0.705
27. LOU-NH91  0.713
28. NCI-H1792  0.72
29. COR-L23  0.742
30. EKVX  0.744
31. LC-2-ad  0.761
32. LXF-289  0.769
33. HOP-62  0.816
34. HCC-366  0.885

Same assay, conditions: first compound 0.03162 µM

In order of falling relative viability:
1. LC-2-ad  0.974
2. HCC-366  0.931
3. HOP-62  0.84
4. LXF-289  0.809
5. COR-L 105  0.803
6. NCI-H1563  0.766
7. HCC-15  0.754
8. NCI-H1792  0.748
9. 201T  0.744
10. HCC-827  0.738
11. EKVX  0.737
12. COR-L23  0.73
13. LOU-NH91  0.724
14. NCI-H522  0.718
15. CAL-12T  0.71
16. ChaGo-K-1  0.675
17. H3255  0.652
18. NCI-H2342  0.613
19. NCI-H23  0.58
20. NCI-H441  0.553
21. HCC-44  0.546
22. ABC-1  0.526
23. NCI-H322M  0.521
24. SW 900  0.507
25. HARA  0.504
26. LCLC-103H  0.485
27. LCLC-97TM1  0.457
28. A-427  0.447
29. NCI-H1623  0.435
30. EMC-BAC-2  0.391
31. HCC-78  0.365
32. LU99A  0.319
33. BEN  0.3
34. NCI-H1648  0.265
35. EPLC-272H  0.253
36. LK-2  0.186

Same assay, conditions: first compound 0.1 µM

In order of falling relative viability:
1. LC-2-ad  0.96
2. HCC-366  0.889
3. HOP-62  0.822
4. LOU-NH91  0.798
5. HCC-827  0.793
6. LXF-289  0.758
7. EKVX  0.756
8. NCI-H1563  0.753
9. NCI-H522  0.702
10. COR-L23  0.674
11. CAL-12T  0.67
12. 201T  0.668
13. NCI-H23  0.66
14. COR-L 105  0.657
15. NCI-H1792  0.656
16. H3255  0.633
17. HCC-15  0.633
18. NCI-H2342  0.623
19. HCC-44  0.611
20. NCI-H441  0.601
21. SW 900  0.581
22. ChaGo-K-1  0.502
23. NCI-H322M  0.478
24. LCLC-97TM1  0.462
25. HARA  0.46
26. NCI-H1623  0.454
27. ABC-1  0.426
28. A-427  0.414
29. LCLC-103H  0.361
30. EMC-BAC-2  0.342
31. BEN  0.296
32. LU99A  0.294
33. HCC-78  0.29
34. EPLC-272H  0.287
35. LK-2  0.166

Same assay, conditions: first compound 0.3162 µM

In order of falling relative viability:
1. 201T  0.77
2. HOP-62  0.765
3. COR-L23  0.76
4. NCI-H522  0.739
5. NCI-H1563  0.727
6. LOU-NH91  0.712
7. EKVX  0.651
8. LC-2-ad  0.612
9. COR-L 105  0.562
10. HCC-44  0.54
11. NCI-H322M  0.535
12. H3255  0.509
13. NCI-H2342  0.509
14. SW 900  0.509
15. LCLC-103H  0.495
16. LXF-289  0.489
17. LCLC-97TM1  0.486
18. HCC-827  0.461
19. ChaGo-K-1  0.435
20. ABC-1  0.422
21. NCI-H1623  0.378
22. BEN  0.307
23. HCC-78  0.307
24. EMC-BAC-2  0.295
25. LU99A  0.259
26. EPLC-272H  0.252
27. NCI-H1648  0.224
28. LK-2  0.189

Same assay, conditions: first compound 1 µM

In order of falling relative viability:
1. HCC-366  0.901
2. LXF-289  0.877
3. NCI-H1563  0.766
4. EKVX  0.744
5. COR-L 105  0.728
6. COR-L23  0.723
7. NCI-H1792  0.722
8. LOU-NH91  0.706
9. LC-2-ad  0.705
10. NCI-H522  0.701
11. 201T  0.698
12. H3255  0.61
13. NCI-H441  0.603
14. CAL-12T  0.586
15. HCC-15  0.568
16. SW 900  0.568
17. NCI-H2342  0.547
18. NCI-H23  0.541
19. ChaGo-K-1  0.53
20. NCI-H322M  0.502
21. HCC-827  0.467
22. A-427  0.441
23. HARA  0.432
24. LCLC-103H  0.428
25. ABC-1  0.402
26. NCI-H1623  0.4
27. HCC-44  0.371
28. EMC-BAC-2  0.36
29. LCLC-97TM1  0.354
30. HCC-78  0.34
31. BEN  0.286
32. LU99A  0.275
33. EPLC-272H  0.259
34. NCI-H1648  0.257
35. LK-2  0.183

Compound: O=C(c1cc(Cc2n[nH]c(=O)c3ccccc23)ccc1F)N1CCN(C(=O)C2CC2)CC1 [Olaparib] + CS(=O)(=O)CCNCc1ccc(-c2ccc3ncnc(Nc4ccc(OCc5cccc(F)c5)c(Cl)c4)c3c2)o1 [Lapatinib] (partner 2 µM)
Assay: as above
Details: first compound 0.08 µM
In short: as §1

In order of rising relative viability:
1. EKVX  0.228
2. H3255  0.229
3. HCC-827  0.239
4. EBC-1  0.247
5. COR-L 105  0.341
6. NCI-H322M  0.576
7. BEN  0.636
8. LOU-NH91  0.83
9. HARA  0.836
10. HCC-78  0.853
11. NCI-H1792  0.895
12. EMC-BAC-2  0.921
13. LXF-289  0.929
14. CAL-12T  0.94
15. NCI-H1563  0.975
16. LK-2  0.985
17. HCC-15  0.999
18. ABC-1  1.01
19. LU99A  1.01
20. NCI-H1299  1.01
21. HCC-44  1.02
22. 201T  1.06
23. HCC-366  1.06
24. LC-2-ad  1.08
25. A-427  1.13
26. IA-LM  1.13
27. EPLC-272H  1.16
28. A549  1.21
29. LCLC-97TM1  1.21
30. HOP-62  1.22
31. Calu-6  1.23
32. COR-L23  1.26
33. NCI-H23  1.32
34. NCI-H1703  1.63

Same assay, conditions: first compound 0.253 µM

In order of rising relative viability:
1. EKVX  0.162
2. HCC-827  0.202
3. EBC-1  0.235
4. H3255  0.245
5. COR-L 105  0.348
6. BEN  0.515
7. HCC-78  0.522
8. NCI-H322M  0.597
9. CAL-12T  0.643
10. HARA  0.725
11. NCI-H1792  0.738
12. HCC-15  0.752
13. LOU-NH91  0.77
14. NCI-H23  0.791
15. COR-L23  0.815
16. A549  0.833
17. LU99A  0.839
18. EPLC-272H  0.848
19. LXF-289  0.871
20. EMC-BAC-2  0.88
21. HCC-366  0.884
22. LC-2-ad  0.89
23. IA-LM  0.926
24. NCI-H1299  0.927
25. A-427  0.931
26. LK-2  0.935
27. HCC-44  0.946
28. LCLC-97TM1  0.947
29. 201T  0.973
30. Calu-6  0.995
31. NCI-H1563  0.999
32. NCI-H1703  1.03
33. ABC-1  1.07
34. HOP-62  1.08

Same assay, conditions: first compound 2.53 µM

In order of rising relative viability:
1. HCC-827  0.194
2. EKVX  0.209
3. EBC-1  0.236
4. H3255  0.256
5. COR-L 105  0.363
6. LCLC-97TM1  0.565
7. NCI-H322M  0.599
8. CAL-12T  0.631
9. LU99A  0.643
10. NCI-H23  0.679
11. HARA  0.699
12. LOU-NH91  0.733
13. COR-L23  0.739
14. HOP-62  0.741
15. IA-LM  0.746
16. HCC-366  0.77
17. BEN  0.784
18. HCC-15  0.808
19. NCI-H1792  0.82
20. EMC-BAC-2  0.852
21. A-427  0.879
22. Calu-6  0.893
23. LC-2-ad  0.905
24. LK-2  0.92
25. 201T  0.939
26. NCI-H1299  0.949
27. LXF-289  0.97
28. A549  0.983
29. NCI-H1563  0.992
30. HCC-78  1.01
31. ABC-1  1.02
32. EPLC-272H  1.08
33. HCC-44  1.11
34. NCI-H1703  1.29

Same assay, conditions: first compound 8 µM

In order of rising relative viability:
1. HCC-827  0.176
2. EBC-1  0.201
3. EKVX  0.213
4. H3255  0.219
5. COR-L 105  0.317
6. HCC-366  0.417
7. COR-L23  0.438
8. LCLC-97TM1  0.438
9. NCI-H23  0.485
10. LU99A  0.49
11. NCI-H322M  0.491
12. HOP-62  0.538
13. LC-2-ad  0.597
14. IA-LM  0.602
15. CAL-12T  0.664
16. A549  0.666
17. HCC-78  0.666
18. BEN  0.712
19. Calu-6  0.724
20. LOU-NH91  0.735
21. EMC-BAC-2  0.758
22. HARA  0.763
23. HCC-15  0.765
24. NCI-H1792  0.779
25. NCI-H1563  0.92
26. LK-2  0.941
27. NCI-H1299  0.963
28. LXF-289  0.973
29. 201T  1
30. EPLC-272H  1.01
31. A-427  1.02
32. NCI-H1703  1.04
33. HCC-44  1.05
34. ABC-1  1.25
